Drawing on patent publication US20100286424A1 (priority 2007, published 2010), this text covers IC50 and LD50 for three molecules.

The test system of data set [1] is cell growth. Format: cell-based.
The subject of data set [2] is mouse. The settings on record: in vivo, po; cited from earlier work.

The IC50 is the midpoint of a concentration-inhibition curve. In turn, Arsenious acid came in with a half-inhibitory concentration (IC50) in data set [1] of 10 µM. As to `C[As+](C)(C)CC(=O)[O-]` [AB, arsenobetaine], the LD50 in data set [2] was 10,000 mg/kg.

In data set [1], Arsenic acid showed an IC50 of 100 µM.
